Common to all, as to type: biochemical
One experiment has as its target T1, BTK-WT (Homo sapiens, UniProt Q06187).
T1 construct: purified from insect cells as a full-length construct containing an N-terminal 6X-His tag; His6 (N); made in house; host or cells: insect cells (baculovirus Sf21 in Method B)
As to the kind of experiment: Btk in vitro inhibitory activity (one of Method A TR-FRET, Method B electrophoretic mobility shift, Method C radiometric filter binding). The note with it: D-compounds panel data; read-out: IC50 BTK-WT.

The target of another experiment is LCK (Homo sapiens, UniProt P06239). As to the kind of experiment: Inhibition of a panel of kinases, in vitro HotSpot kinase assay: LCK. The note with it: D-compounds panel data; 1 μM ATP; read-out: IC50 LCK.
Sequence of LCK (P06239 whole entry): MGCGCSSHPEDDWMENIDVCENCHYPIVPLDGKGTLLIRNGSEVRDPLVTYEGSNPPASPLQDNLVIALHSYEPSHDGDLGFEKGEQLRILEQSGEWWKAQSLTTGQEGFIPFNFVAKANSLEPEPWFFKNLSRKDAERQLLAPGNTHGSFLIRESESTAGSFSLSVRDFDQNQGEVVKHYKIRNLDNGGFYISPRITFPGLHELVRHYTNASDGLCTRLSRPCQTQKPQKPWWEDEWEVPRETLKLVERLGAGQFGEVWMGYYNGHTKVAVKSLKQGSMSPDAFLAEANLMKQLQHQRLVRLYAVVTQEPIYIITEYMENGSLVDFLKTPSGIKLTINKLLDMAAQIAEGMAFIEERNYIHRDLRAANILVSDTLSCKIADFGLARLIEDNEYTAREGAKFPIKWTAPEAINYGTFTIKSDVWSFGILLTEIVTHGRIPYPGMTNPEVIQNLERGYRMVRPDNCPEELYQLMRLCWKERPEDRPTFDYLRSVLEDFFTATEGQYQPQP
Another experiment addresses T2, ITK (Homo sapiens, UniProt Q08881).
T2 sequence (Q08881 1-620): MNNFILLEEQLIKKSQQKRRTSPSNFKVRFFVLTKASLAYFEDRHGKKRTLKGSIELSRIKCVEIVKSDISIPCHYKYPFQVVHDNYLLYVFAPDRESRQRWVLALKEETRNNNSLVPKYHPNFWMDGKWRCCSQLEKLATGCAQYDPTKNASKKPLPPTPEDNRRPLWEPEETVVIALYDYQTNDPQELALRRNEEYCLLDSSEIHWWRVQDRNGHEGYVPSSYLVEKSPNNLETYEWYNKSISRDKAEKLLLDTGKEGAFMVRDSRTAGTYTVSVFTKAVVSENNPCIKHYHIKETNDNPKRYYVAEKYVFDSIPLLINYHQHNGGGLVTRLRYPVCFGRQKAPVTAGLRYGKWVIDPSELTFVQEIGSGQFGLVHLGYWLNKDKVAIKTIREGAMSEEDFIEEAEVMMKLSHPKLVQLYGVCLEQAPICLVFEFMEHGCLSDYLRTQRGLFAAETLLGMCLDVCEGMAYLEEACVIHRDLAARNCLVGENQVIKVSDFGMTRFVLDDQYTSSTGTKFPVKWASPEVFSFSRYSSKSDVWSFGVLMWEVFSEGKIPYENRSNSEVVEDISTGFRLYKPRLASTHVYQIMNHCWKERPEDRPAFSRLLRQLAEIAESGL
As to the kind of experiment: Inhibition of a panel of kinases, in vitro HotSpot kinase assay: ITK. The note with it: D-compounds panel data; 1 μM ATP. As for the experimental part:
(§1) The degree of inhibition of a panel of kinases is determined using the in vitro HotSpot kinase assay (purified enzymes, ^33P-ATP, an appropriate substrate and 1 μM ATP).

In another experiment the target is EGFR (Homo sapiens, UniProt P00533). Description: Inhibition of a panel of kinases, in vitro HotSpot kinase assay: EGFR. The note with it: D-compounds panel data; 1 μM ATP. As for the experimental part:
as §1

Another experiment deals with SRC (Homo sapiens, UniProt P12931). Description: Inhibition of a panel of kinases, in vitro HotSpot kinase assay: SRC. The note with it: D-compounds panel data; 1 μM ATP. On the procedure: as §1
Sequence of SRC (P12931 whole entry): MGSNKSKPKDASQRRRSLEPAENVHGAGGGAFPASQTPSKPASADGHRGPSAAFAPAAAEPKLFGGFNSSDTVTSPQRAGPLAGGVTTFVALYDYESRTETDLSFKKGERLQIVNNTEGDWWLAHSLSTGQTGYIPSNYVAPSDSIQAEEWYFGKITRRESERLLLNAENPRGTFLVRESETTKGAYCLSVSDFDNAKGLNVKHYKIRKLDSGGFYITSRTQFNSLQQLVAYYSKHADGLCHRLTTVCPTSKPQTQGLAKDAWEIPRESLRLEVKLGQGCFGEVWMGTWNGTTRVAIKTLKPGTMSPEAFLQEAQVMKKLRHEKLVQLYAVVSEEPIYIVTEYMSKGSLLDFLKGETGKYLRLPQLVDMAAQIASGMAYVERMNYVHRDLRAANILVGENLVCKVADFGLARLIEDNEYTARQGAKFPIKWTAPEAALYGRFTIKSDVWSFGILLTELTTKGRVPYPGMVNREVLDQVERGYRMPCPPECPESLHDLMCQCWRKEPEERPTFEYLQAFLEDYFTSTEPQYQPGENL

Where only a bound is given, the exact number is not on record here.

T1 sequence (Q06187 whole entry): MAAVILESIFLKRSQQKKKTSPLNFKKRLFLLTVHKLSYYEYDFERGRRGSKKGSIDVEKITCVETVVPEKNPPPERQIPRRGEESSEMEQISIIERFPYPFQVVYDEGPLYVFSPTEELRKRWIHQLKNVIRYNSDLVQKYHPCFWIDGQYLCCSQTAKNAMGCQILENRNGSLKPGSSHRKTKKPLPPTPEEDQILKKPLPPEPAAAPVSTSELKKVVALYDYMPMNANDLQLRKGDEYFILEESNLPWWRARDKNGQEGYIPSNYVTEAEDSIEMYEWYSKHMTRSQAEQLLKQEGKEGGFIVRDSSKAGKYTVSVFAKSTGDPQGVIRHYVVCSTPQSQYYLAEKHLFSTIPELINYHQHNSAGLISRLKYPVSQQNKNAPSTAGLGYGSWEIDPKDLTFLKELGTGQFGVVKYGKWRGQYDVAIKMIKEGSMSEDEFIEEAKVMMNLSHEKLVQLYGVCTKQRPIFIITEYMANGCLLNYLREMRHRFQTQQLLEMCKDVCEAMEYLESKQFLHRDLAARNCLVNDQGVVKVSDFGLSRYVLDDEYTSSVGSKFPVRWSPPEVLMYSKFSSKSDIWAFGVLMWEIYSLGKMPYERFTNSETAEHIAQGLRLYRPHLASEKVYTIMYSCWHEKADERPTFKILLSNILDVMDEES
Sequence of EGFR (P00533 25-1210): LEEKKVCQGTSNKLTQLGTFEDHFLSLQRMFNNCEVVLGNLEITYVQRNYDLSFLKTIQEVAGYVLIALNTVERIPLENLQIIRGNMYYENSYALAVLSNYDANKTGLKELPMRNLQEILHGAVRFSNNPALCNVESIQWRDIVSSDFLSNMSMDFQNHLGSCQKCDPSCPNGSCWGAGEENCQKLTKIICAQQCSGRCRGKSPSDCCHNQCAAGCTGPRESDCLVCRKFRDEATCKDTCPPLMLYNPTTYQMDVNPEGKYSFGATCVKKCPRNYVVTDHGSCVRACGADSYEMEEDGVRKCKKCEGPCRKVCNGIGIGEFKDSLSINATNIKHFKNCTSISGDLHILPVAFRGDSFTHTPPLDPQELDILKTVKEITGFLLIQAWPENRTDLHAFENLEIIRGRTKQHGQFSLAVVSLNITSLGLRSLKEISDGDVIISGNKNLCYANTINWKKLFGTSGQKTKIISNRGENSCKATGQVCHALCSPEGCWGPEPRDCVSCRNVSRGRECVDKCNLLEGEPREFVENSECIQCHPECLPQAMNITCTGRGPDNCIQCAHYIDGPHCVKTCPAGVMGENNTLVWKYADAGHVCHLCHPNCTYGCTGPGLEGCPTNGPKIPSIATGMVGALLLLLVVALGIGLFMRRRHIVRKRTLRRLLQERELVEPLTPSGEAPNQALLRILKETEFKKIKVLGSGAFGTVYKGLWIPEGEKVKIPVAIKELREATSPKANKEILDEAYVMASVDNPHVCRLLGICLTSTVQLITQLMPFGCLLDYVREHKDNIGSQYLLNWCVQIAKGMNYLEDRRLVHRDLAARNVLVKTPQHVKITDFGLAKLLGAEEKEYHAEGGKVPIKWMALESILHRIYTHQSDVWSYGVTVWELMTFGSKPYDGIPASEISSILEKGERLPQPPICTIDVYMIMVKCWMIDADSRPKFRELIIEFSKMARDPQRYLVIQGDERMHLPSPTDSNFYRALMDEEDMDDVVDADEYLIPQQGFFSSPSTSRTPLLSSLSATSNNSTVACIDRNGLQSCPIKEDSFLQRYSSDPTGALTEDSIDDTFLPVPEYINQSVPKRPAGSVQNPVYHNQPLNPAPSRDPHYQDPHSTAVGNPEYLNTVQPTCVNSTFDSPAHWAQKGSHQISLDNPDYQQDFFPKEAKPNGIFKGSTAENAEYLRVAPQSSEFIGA

As for `C[C@@H]1[C@H](NC(=O)c2ccc(C3CC3)cc2F)CCCN1c1cnc(C(N)=O)c(Nc2ccc(N3CCN(C)CC3)nc2)n1` [Example D-13, 5-[(2R,3R)-3-(4-cyclopropyl-2-fluorobenzamido)-2-methylpiperidin-1-yl]-3-{[6-(4-methylpiperazin-1-yl)pyridin-3-yl]amino}pyrazine-2-carboxamide], the IC50 – broadly, the concentration needed to halve the response being measured – was not above 10 nM on BTK-WT; 100 to 1000 nM on LCK; 1000 to 10000 nM against ITK; 1000 to 10000 nM against EGFR; 100 to 1000 nM at SRC.
On to `C[C@@H]1[C@H](NC(=O)c2ccc(C(O)(C(F)(F)F)C(F)(F)F)cc2)CCCN1c1cnc(C(N)=O)c(Nc2cnn(C)c2)n1` [Example D-240, 5-[(2R,3R)-3-[4-(1,1,1,3,3,3-hexafluoro-2-hydroxypropan-2-yl)benzamido]-2-methylpiperidin-1-yl]-3-[(1-methyl-1H-pyrazol-4-yl)amino]pyrazine-2-carboxamide], for which the half-inhibitory concentration (IC50) is not above 10 nM on BTK-WT; 100 to 1000 nM at LCK; 100 to 1000 nM against ITK; 100 to 1000 nM against EGFR; 100 to 1000 nM against SRC.
In the case of `Cn1cc(Nc2nc(N3CCC[C@@H](n4ccc5cc(C6CC6)ccc5c4=O)C3)nnc2C(N)=O)cn1` [Example D-206, 3-[(3R)-3-(6-cyclopropyl-1-oxo-1,2-dihydroisoquinolin-2-yl)piperidin-1-yl]-5-[(1-methyl-1H-pyrazol-4-yl)amino]-1,2,4-triazine-6-carboxamide], the IC50 on BTK-WT is not above 10 nM; on LCK, 10 to 100 nM; at ITK it was 100 to 1000 nM; on EGFR, 1000 to 10000 nM; at SRC, 10 to 100 nM.
For the compound `Cc1ncc(Nc2nc(N3CCC[C@@H](NC(=O)c4ccc(C5CC5)cc4)[C@H]3C)cnc2C(N)=O)s1` [Example D-210, 5-[(2R,3R)-3-(4-cyclopropylbenzamido)-2-methylpiperidin-1-yl]-3-[(2-methyl-1,3-thiazol-5-yl)amino]pyrazine-2-carboxamide], the IC50 at BTK-WT is not above 10 nM; at LCK, 100 to 1000 nM; on ITK, 100 to 1000 nM; against EGFR, 1000 to 10000 nM; against SRC, 100 to 1000 nM.
On to `C[C@@H]1[C@H](NC(=O)c2ccc(N(C)C)cc2)CCCN1c1cnc(C(N)=O)c(Nc2ccc(C3(C)CCN(C4CCCC4)CC3)cc2)n1` [Example D-183, 3-{[4-(1-cyclopentyl-4-methylpiperidin-4-yl)phenyl]amino}-5-[(2R,3R)-3-[4-(dimethylamino)benzamido]-2-methylpiperidin-1-yl]pyrazine-2-carboxamide], for which the IC50 at BTK-WT is not above 10 nM; at LCK, 10 to 100 nM; on ITK, 10 to 100 nM; against EGFR, 100 to 1000 nM; against SRC, not above 10 nM.
For `Cn1cc(Nc2nc(N3CC(NC(=O)c4ccc(C5CC5)cc4)CC(F)(F)C3)cnc2C(N)=O)cn1` (stereo in doubt) [Example D-190, 5-[(5S)-5-(4-cyclopropylbenzamido)-3,3-difluoropiperidin-1-yl]-3-[(1-methyl-1H-pyrazol-4-yl)amino]pyrazine-2-carboxamide], the IC50 on BTK-WT was not above 10 nM; at LCK it was 100 to 1000 nM; against ITK, 1000 to 10000 nM; against EGFR it was 1000 to 10000 nM; on SRC, 100 to 1000 nM.
For the compound `C[C@@H]1[C@H](NC(=O)c2ccc(C3CC3)nc2)CCCN1c1cnc(C(N)=O)c(Nc2ccc(N3CCN(C)CC3)cc2)n1` [Example D-203, 5-[(2R,3R)-3-(6-cyclopropylpyridine-3-amido)-2-methylpiperidin-1-yl]-3-{[4-(4-methylpiperazin-1-yl)phenyl]amino}pyrazine-2-carboxamide], the 50% inhibitory concentration (IC50) is not above 10 nM on BTK-WT; 10 to 100 nM at LCK; 10 to 100 nM against ITK; 100 to 1000 nM at EGFR; 10 to 100 nM on SRC.
As for `C[C@@H]1[C@H](NC(=O)c2cnc(C(C)(C)C)s2)CCCN1c1cnc(C(N)=O)c(Nc2cnn(C)c2)n1` [Example D-239, 5-[(2R,3R)-3-(2-tert-butyl-1,3-thiazole-5-amido)-2-methylpiperidin-1-yl]-3-[(1-methyl-1H-pyrazol-4-yl)amino]pyrazine-2-carboxamide], the IC50 on BTK-WT was not above 10 nM; on LCK, 10 to 100 nM; on ITK, 100 to 1000 nM; against EGFR it was 100 to 1000 nM; against SRC, 10 to 100 nM.
Take `CC1(c2ccc(Nc3nc(N4CCC[C@@H](n5ccc6cc(C7CC7)ccc6c5=O)C4)cnc3C(N)=O)cc2)CCN(C2CCCC2)CC1` [Example D-177, 3-{[4-(1-cyclopentyl-4-methylpiperidin-4-yl)phenyl]amino}-5-[(3R)-3-(6-cyclopropyl-1-oxo-1,2-dihydroisoquinolin-2-yl)piperidin-1-yl]pyrazine-2-carboxamide]: the 50% inhibitory concentration (IC50) on BTK-WT was not above 10 nM; on LCK, 10 to 100 nM; against ITK it was 10 to 100 nM; at EGFR, 100 to 1000 nM; against SRC, 10 to 100 nM.

The record behind these values is patent publication US20210070748A1, “INHIBITORS OF BRUTONS TYROSINE KINASE” (Pharmacyclics LLC, priority 2015, published 2021).
